In patent US20240190891A1, “PYRIDO OXAZINE AMINO DERIVATIVES AS ALK5 INHIBITORS” (CHIESI FARMACEUTICI S.P.A., priority 2020, published 2024) one finds IC50 data, which are given here for 30 compounds.

pIC50: −log10 of the molar value.

The assay deals with T1, human ALK5 (Homo sapiens, UniProt P36897).
T1 construct: human ALK5 (recombinant TGF β1 N-term GST-tagged, 80-end); GST (N); purchased
T1 sequence (P36897 80-503 limits assumed): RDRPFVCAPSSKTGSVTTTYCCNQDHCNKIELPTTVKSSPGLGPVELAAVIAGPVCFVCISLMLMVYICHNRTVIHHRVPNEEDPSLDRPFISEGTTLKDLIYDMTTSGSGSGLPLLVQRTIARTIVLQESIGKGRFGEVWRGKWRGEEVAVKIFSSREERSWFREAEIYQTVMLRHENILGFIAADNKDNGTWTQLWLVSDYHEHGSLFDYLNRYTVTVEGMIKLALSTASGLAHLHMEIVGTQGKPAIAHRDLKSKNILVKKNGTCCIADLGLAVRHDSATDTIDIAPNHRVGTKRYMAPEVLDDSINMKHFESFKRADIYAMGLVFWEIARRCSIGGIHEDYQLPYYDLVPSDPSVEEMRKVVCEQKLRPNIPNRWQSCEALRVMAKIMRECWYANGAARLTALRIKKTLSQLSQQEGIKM
Briefly: ADP-GLO Kinases assay, inhibitory activity on ALK5. The assay is classed as biochemical. The following applies: Table 10; purified recombinant human ALK5 2.6 nM, ADP-Glo, 25° C., 150 min incubation. As for the experimental part: The enzymatic activity of compounds of the present invention was monitored measuring the formation of ADP using the ADP-GLO Kinases assay. Following the incubation of the purified enzyme, a substrate and ATP, the produced ADP was converted into ATP, which in turn was converted into light by Ultra-Glo Luciferase. The luminescent signal positively correlated with ADP amount and kinase activity. Briefly, the kinase reaction was performed by incubating 2.6 nM of the purified, commercially available human ALK5 (recombinant TGF β1 N-term GST-tagged, 80-end), a final concentration of TGFβ1 peptide 94.5 μM (Promega, T36-58) and ultra-pure ATP (Promega V915B). The ATP concentration was set at the Km value (concentration of substrate which permits the enzyme to achieve half maximal velocity (Vmax)) of ALK5 (5 μM). All reactions/incubations were performed at 25° C. Compound and ALK5 kinase were mixed and incubated for 15 mins. Reactions were initiated by addition of ATP at a final concentration in the assay of 0.83 μM. After an incubation of 150 min, the reaction was stopped, and ADP production detected with ADP-Glo kit according to manufacturer's indications. The assay was performed in 384-well format and was validated using a selection of reference compounds that was tested in 11 point concentration-response curve.
Compounds of the examples C1, C2 and C3 were tested in the same in vitro assay described above.
A general note: In ADP-Glo the light output rises with the ADP produced.

Usually pIC50 stands for −log10 of the IC50, conventionally taken in molar units. On to `Fc1ccc(Cl)cc1-c1cc(Nc2ccncc2)c2c(n1)NCCO2` [Example 1, N-[6-(5-chloro-2-fluorophenyl)-2H,3H,4H-pyrido[3,2-b][1,4]oxazin-8-yl]-pyridine-4-amine], for which the pIC50 is above 9.00.

On to `CNC(=O)c1cnccc1Nc1cc(-c2cc(Cl)ccc2F)nc2c1OCCN2` [Example 2, 4-{[6-(5-chloro-2-fluorophenyl)-2H,3H,4H-pyrido[3,2-b][1,4]oxazin-8-yl]amino}-N-methylpyridine-3-carboxamide], for which the pIC50 is above 9.00. Take `Nc1cc(Nc2cc(-c3cc(Cl)ccc3F)nc3c2OCCN3)ccn1` [Example 3, N4-[6-(5-chloro-2-fluorophenyl)-2H,3H,4H-pyrido[3,2-b][1,4]oxazin-8-yl]pyridine-2,4-diamine]: the pIC50 was 8.30 to 9.00. Take `Cc1csc(-c2cc(Nc3ccncc3)c3c(n2)NCCO3)n1` [Example 4, N-[6-(4-methyl-1,3-thiazol-2-yl)-2H,3H,4H-pyrido[3,2-b][1,4]oxazin-8-yl]pyridin-4-amine]: the negative logarithm of the IC50 (pIC50) is 8.00 to 8.30. For `Cc1cccc(-c2cc(Nc3ccncc3)c3c(n2)NCCO3)n1` [Example 5, N-[6-(6-methylpyridin-2-yl)-2H,3H,4H-pyrido[3,2-b][1,4]oxazin-8-yl]pyridin-4-amine], the pIC50 is 8.00 to 8.30. The result for `CNC(=O)c1cc(Nc2cc(-c3cc(Cl)ccc3F)nc3c2OCCN3)ccn1` [Example 6, 4-{[6-(5-chloro-2-fluorophenyl)-2H,3H,4H-pyrido[3,2-b][1,4]oxazin-8-yl]amino}-N-methylpyridine-2-carboxamide] reads 8.00 to 8.30. Consider `Nc1cnccc1Nc1cc(-c2cc(Cl)ccc2F)nc2c1OCCN2` [Example 7, N4-[6-(5-chloro-2-fluorophenyl)-2H,3H,4H-pyrido[3,2-b][1,4]oxazin-8-yl]pyridine-3,4-diamine], for which the pIC50 is 8.30 to 9.00.

`Cc1ccc(F)c(-c2cc(Nc3ccncc3)c3c(n2)NCCO3)c1` [Example 8, N-[6-(2-fluoro-5-methylphenyl)-2H,3H,4H-pyrido[3,2-b][1,4]oxazin-8-yl]pyridin-4-amine]: the pIC50 is above 9.00. In the case of `O=C(NCCN1CCOCC1)c1cnccc1Nc1cc(-c2cc(Cl)ccc2F)nc2c1OCCN2` [Example 9, 4-{[6-(5-chloro-2-fluorophenyl)-2H,3H,4H-pyrido[3,2-b][1,4]oxazin-8-yl]amino}-N-[2-(morpholin-4-yl)ethyl]pyridine-3-carboxamide], the pIC50 was 8.30 to 9.00. For the compound `CN(C)CCNC(=O)c1cnccc1Nc1cc(-c2cc(Cl)ccc2F)nc2c1OCCN2` [Example 10, 4-{[6-(5-chloro-2-fluorophenyl)-2H,3H,4H-pyrido[3,2-b][1,4]oxazin-8-yl]amino}-N-[2-(dimethylamino)ethyl]pyridine-3-carboxamide], the pIC50 was above 9.00. As for `Fc1ccccc1-c1cc(Nc2ccncc2)c2c(n1)NCCO2` [Example 11, N-[6-(2-fluorophenyl)-2H,3H,4H-pyrido[3,2-b][1,4]oxazin-8-yl]pyridin-4-amine], the pIC50 is 8.30 to 9.00. Regarding `O=C(NCCN1CCNCC1)c1cnccc1Nc1cc(-c2cc(Cl)ccc2F)nc2c1OCCN2` [Example 12, 4-{[6-(5-chloro-2-fluorophenyl)-2H,3H,4H-pyrido[3,2-b][1,4]oxazin-8-yl]amino}-N-[2-(piperazin-1-yl)ethyl]pyridine-3-carboxamide], the pIC50 was above 9.00. The result for `Clc1cccc(-c2cc(Nc3ccncc3)c3c(n2)NCCO3)n1` [Example 13, N-[6-(6-chloropyridin-2-yl)-2H,3H,4H-pyrido[3,2-b][1,4]oxazin-8-yl]pyridin-4-amine] reads 8.30 to 9.00; that for `Fc1ccc(F)c(-c2cc(Nc3ccncc3)c3c(n2)NCCO3)c1` [Example 14, N-[6-(2,5-difluorophenyl)-2H,3H,4H-pyrido[3,2-b][1,4]oxazin-8-yl]pyridin-4-amine], 8.30 to 9.00; that for `Clc1cccc(-c2cc(Nc3ccncc3)c3c(n2)NCCO3)c1` [Example 15, N-[6-(3-chlorophenyl)-2H,3H,4H-pyrido[3,2-b][1,4]oxazin-8-yl]pyridin-4-amine], 8.30 to 9.00. For the compound `O=C(O)c1cnccc1Nc1cc(-c2cc(Cl)ccc2F)nc2c1OCCN2` [Example 16, lithium 4-{[6-(5-chloro-2-fluorophenyl)-2H,3H,4H-pyrido[3,2-b][1,4]oxazin-8-yl]amino}pyridine-3-carboxylate], the pIC50 is above 9.00. Turning to `COC(=O)c1cnccc1Nc1cc(-c2cc(Cl)ccc2F)nc2c1OCCN2` [Example 17, methyl 4-{[6-(5-chloro-2-fluorophenyl)-2H,3H,4H-pyrido[3,2-b][1,4]oxazin-8-yl]amino}pyridine-3-carboxylate], the pIC50 was above 9.00. As to `Cc1cccc(-c2cc(Nc3ccncc3)c3c(n2)NCCO3)c1` [Example 18, N-[6-(3-methylphenyl)-2H,3H,4H-pyrido[3,2-b][1,4]oxazin-8-yl]pyridin-4-amine], the pIC50 was 8.30 to 9.00. `Fc1ccc(-c2cc(Nc3ccncc3)c3c(n2)NCCO3)cc1Cl` [Example 19, N-[6-(3-chloro-4-fluorophenyl)-2H,3H,4H-pyrido[3,2-b][1,4]oxazin-8-yl]pyridin-4-amine]: the pIC50 was 8.00 to 8.30. The result for `O=C(CCN1CCOCC1)Nc1cc(Nc2cc(-c3cc(Cl)ccc3F)nc3c2OCCN3)ccn1` [Example 20, N-(4-{[6-(5-chloro-2-fluorophenyl)-2H,3H,4H-pyrido[3,2-b][1,4]oxazin-8-yl]amino}pyridin-2-yl)-3-(morpholin-4-yl)propanamide] reads above 9.00; that for `CNCCNC(=O)c1cnccc1Nc1cc(-c2cc(Cl)ccc2F)nc2c1OCCN2` [Example 21, 4-{[6-(5-chloro-2-fluorophenyl)-2H,3H,4H-pyrido[3,2-b][1,4]oxazin-8-yl]amino}-N-[2-(methylamino)ethyl]pyridine-3-carboxamide], above 9.00; that for `CC(C)NC(=O)c1cnccc1Nc1cc(-c2cc(Cl)ccc2F)nc2c1OCCN2` [Example 22, 4-{[6-(5-chloro-2-fluorophenyl)-2H,3H,4H-pyrido[3,2-b][1,4]oxazin-8-yl]amino}-N-(propan-2-yl)pyridine-3-carboxamide], 8.30 to 9.00. Then `O=C(NC1CC1)c1cnccc1Nc1cc(-c2cc(Cl)ccc2F)nc2c1OCCN2` [Example 23, 4-{[6-(5-chloro-2-fluorophenyl)-2H,3H,4H-pyrido[3,2-b][1,4]oxazin-8-yl]amino}-N-cyclopropylpyridine-3-carboxamide], with above 9.00; and `O=C(NC1CCNCC1)c1cnccc1Nc1cc(-c2cc(Cl)ccc2F)nc2c1OCCN2` [Example 24, 4-{[6-(5-chloro-2-fluorophenyl)-2H,3H,4H-pyrido[3,2-b][1,4]oxazin-8-yl]amino}-N-(piperidin-4-yl)pyridine-3-carboxamide], with above 9.00; and `Fc1ccc(Cl)cc1-c1cc(Nc2ccnc3[nH]ncc23)c2c(n1)NCCO2` [Example 25, 6-(5-chloro-2-fluorophenyl)-N-{1H-pyrazolo[3,4-b]pyridin-4-yl}-2H,3H,4H-pyrido[3,2-b][1,4]oxazin-8-amine], with above 9.00. Then `Fc1ccc(-c2cc(Nc3ccncc3)c3c(n2)NCCO3)nc1` [Example 26, N-[6-(5-fluoropyridin-2-yl)-2H,3H,4H-pyrido[3,2-b][1,4]oxazin-8-yl]pyridin-4-amine], with 8.00 to 8.30; and `CN(C)CCOC(=O)c1cnccc1Nc1cc(-c2cc(Cl)ccc2F)nc2c1OCCN2` [Example 27, 2-(dimethylamino)ethyl 4-{[6-(5-chloro-2-fluorophenyl)-2H,3H,4H-pyrido[3,2-b][1,4]oxazin-8-yl]amino}pyridine-3-carboxylate], with 8.30 to 9.00; and `CN1CCN(CCNC(=O)c2cnccc2Nc2cc(-c3cc(Cl)ccc3F)nc3c2OCCN3)CC1` [Example 28, 4-{[6-(5-chloro-2-fluorophenyl)-2H,3H,4H-pyrido[3,2-b][1,4]oxazin-8-yl]amino}-N-[2-(4-methylpiperazin-1-yl)ethyl]pyridine-3-carboxamide], with 8.30 to 9.00. `CN1CCN(CCOC(=O)c2cnccc2Nc2cc(-c3cc(Cl)ccc3F)nc3c2OCCN3)CC1` [Example 29, 2-(4-methylpiperazin-1-yl)ethyl 4-{[6-(5-chloro-2-fluorophenyl)-2H,3H,4H-pyrido[3,2-b][1,4]oxazin-8-yl]amino}pyridine-3-carboxylate]: the pIC50 was above 9.00.

As for `COC(=O)c1cnccc1Nc1cc(-c2cccc(C)n2)nc2c1OCCN2` [Example 30, methyl 4-{[6-(6-methylpyridin-2-yl)-2H,3H,4H-pyrido[3,2-b][1,4]oxazin-8-yl]amino}pyridine-3-carboxylate], the pIC50 was above 9.00.
